According to US7371779B2, “Synergistic compositions of N-acylhomoserine lactones and 4-quinolones” (The Secretary of State for Defense Science and Technology, priority 2001, dated 2008):
Entries after “also recorded” stand apart in the source; their conditions may differ.

What was measured:
[1] = system: TNF-alpha; experiment: TNF-alpha production from LPS-stimulated human PBMC (sandwich ELISA); format: cell-based; settings: for inhibition of LPS induced TNF-α production by human PBMC, in words: LPS-stimulated human PBMC
Procedure: Bacterial lipopolysaccharide (LPS) stimulates the production of a variety of cytokines, including TNF-alpha, from human PBMC; these cytokines in turn influence the development of T cells, supporting a T helper 1 conducive milieu. Human PBMC prepared from whole blood by buoyant density centrifugation were resuspended in CTCM. […] Following incubation for 24 h at 37° C. in 5% CO2-air, the cell culture supernatants were collected and tested for TNF-alpha levels by ‘sandwich’ ELISA. Briefly, 96-well Nunc MaxiSorp (Life Technologies, Paisley, UK) plates were coated with 50 μl of a 2 μg/ml solution of mouse anti-human TNF-alpha monoclonal antibody (Pharmingen, UK) in 0.05 M carbonate/bicarbonate buffer, pH 9.6 overnight at 4° C. After washing the plates three times with PBS-Tween, which contained phosphate buffered saline (PBS) with 0.5% (vol/vol) Tween 20 (Sigma, Poole, UK), the plates were blocked with 1% (wt/vol) bovine serum albumin (BSA) (Sigma, Poole, UK) at room temperature for 2 h. Following three washes with PBS-Tween, 50 μl of cell culture supernatants were added and incubated overnight at 4° C.; standard human TNF-alpha (Pharmingen, UK) ranging from 2000 to 31.25 pg/ml were included for each plate. After four washes with PBS-Tween, 50 μl of a second antibody, biotinylated mouse anti-human TNF-alpha monoclonal antibody (Pharmingen, UK) was added at 0.5 μg/1 ml diluted in 1% BSA in PBS-Tween and incubated at room temperature for 1 h. Following four washes, the bound biotinylated antibody was detected with 50 μl of a 1:1,000 dilution of Streptavidin-peroxidase (Pharmingen, UK). At the end of an hour incubation at room temperature, the plates were thoroughly washed six times with PBS-Tween and the assay was developed by the addition of 100 μl of 0.1 mg/ml of tetramethyl benzidine subtrate (Sigma, Poole, UK) in 0.1 M sodium acetate buffer, pH 6 containing 0.03% H2O2. The enzyme reaction was stopped with 50 μl of 2.5 M H2SO4 after an incubation of 10 minutes at room temperature and the development was read at 450 nm with a spectrophotometric 96-well plate reader (Dynex).

[2] = system: hPBMC; experiment: Cell proliferation of hPBMC stimulated with anti-CD3 and anti-CD28; format: cell-based, human; settings: four donors; for inhibition of proliferation of hPBMC stimulated via CD3 and CD28, in words: 0.78125 to 100 μM
Procedure: Anti-CD3 and anti-CD28 antibodies were used to assess the effect of quorum sensing signal molecules (PQS, OdDHL and OHHL) on T-cell proliferation and IL-2 secretion. Proliferation was assessed by the incorporation of [^3H]-thymidine into the DNA of PBMC and the release of cytokines in the culture supernatants was determined by ‘sandwich’ ELISA. Blood specimens were obtained with consent from four healthy human volunteers (aged between 20 and 50 years). Human PBMC were isolated from heparinised whole blood by buoyant density centrifugation over Histopaque 1077 (Sigma, Poole, UK) at 600 g for 20 minutes. PBMC harvested from the ‘buffy’ layers were washed twice with RPMI 1640 medium and resuspended in complete cell culture medium (CTCM) consisting of RPMI 1640 medium with 5% FCS, 2 mM L-glutamine, and 5×10^−5 M 2-mercaptoethanol. The quorum sensing molecules, of which stock solutions of 0.1 M were soluble in DMSO, were initially diluted into CTCM and then tested in triplicate wells at concentrations ranging from 0.78125 to 100 μM in 200 μl of CTCM, containing 100,000 hPBMC which were challenged with 100 ng/ml of mouse anti-human CD3 monoclonal antibody (clone UCHT1; BD Pharmingen, UK) and 5 μg/ml of mouse anti-human CD28 monoclonal antibody (clone CD28.2; BD Pharmingen, UK). hPBMC were incubated for 24 h at 37° C. in 5% CO2-air and 50 μl of culture supernatants were removed for the determination of IL-2 (see IV.II below). The cells were returned for a further 24 h culture, followed by pulsing with 0.25 μCi [^3H]-thymidine (Amersham) in 10 μl volume made up in RPMI 1640 medium. After a further incubation of 24 h, cells were harvested onto 96-well filter plates (Unifilter Filtermate Harvester™, Packard Bioscience Ltd, UK). Following the addition of 25 μl of scintillant (MicroScint-O™; Packard Bioscience Ltd. UK) to each well in the filter plates, the radioactivity in the filters was measured with a β-scintillation counter (TopCount™, Packard Bioscience Ltd, UK) according to manufacturer's specifications. […]

[3] = system: IL-2; experiment: IL-2 production from anti-CD3 and anti-CD28 stimulated hPBMC (sandwich ELISA); format: cell-based, human; settings: four donors, 24 h supernatants
Procedure: Anti-CD3 and anti-CD28 antibodies were used to assess the effect of quorum sensing signal molecules (PQS, OdDHL and OHHL) on T-cell proliferation and IL-2 secretion. Proliferation was assessed by the incorporation of [^3H]-thymidine into the DNA of PBMC and the release of cytokines in the culture supernatants was determined by ‘sandwich’ ELISA. Blood specimens were obtained with consent from four healthy human volunteers (aged between 20 and 50 years). Human PBMC were isolated from heparinised whole blood by buoyant density centrifugation over Histopaque 1077 (Sigma, Poole, UK) at 600 g for 20 minutes. […] Following the addition of 25 μl of scintillant (MicroScint-O™; Packard Bioscience Ltd. UK) to each well in the filter plates, the radioactivity in the filters was measured with a β-scintillation counter (TopCount™, Packard Bioscience Ltd, UK) according to manufacturer's specifications. […]
When T cells in hPBMC are challenged with anti-CD3 and anti-CD28 antibodies, the cytokine IL-2 is released into the culture supernatants. The levels of cytokine produced in the culture supernatants after 24 h were determined in a ‘sandwich’ ELISA. […] Following four washes, the bound biotinylated antibody was detected with 50 μl of a 1:1,000 dilution of streptavidin-peroxidase (BD Pharmingen, UK). […]

Row | Structure (SMILES) | inhibition of LPS induced TNF-α production by human PBMC, in words [1] | potency relative to OdDHL in inhibition of CD3/CD28 stimulated hPBMC proliferation [2] | inhibition of proliferation of hPBMC stimulated via CD3 and CD28, in words [2] | inhibition of release of IL-2 from hPBMC stimulated via CD3 and CD28, in words [3] | IC50 ([1]; Experiment III, read-out: IC50 in inhibition of LPS induced production of TNF-α by human PBMC) | inhibition of LPS induced TNF-α production by human PBMC, in words ([1]; listed as OdDHL) | inhibition of proliferation of hPBMC stimulated via CD3 and CD28, in words ([2]; listed as OdDHL) | inhibition of release of IL-2 from hPBMC stimulated via CD3 and CD28, in words ([3]; listed as OdDHL)
1 | CCCCCCCc1[nH]c2ccccc2c(=O)c1O [PQS] | not inhibited | consistently more potent than OdDHL | inhibited, in a dose dependent manner; also recorded: inhibit the proliferation of stimulated hPBMC | but not PQS, inhibits the release of IL-2 |  |  |  | 
2 | CCCCCCCCCC(=O)CC(=O)N[C@H]1CCOC1=O [Example 6] |  |  |  |  | 17 µM | inhibited the secretion | inhibited, in a dose dependent manner; also recorded: inhibit the proliferation of stimulated hPBMC | inhibited in a dose dependent manner the release of IL-2; also recorded: inhibits the release of IL-2
